Patent US20170202939A1, “PERSONALIZED CANCER VACCINES AND METHODS THEREFOR” (Washington University, priority 2014, published 2017)
No end group written: not given here.

Test system: TCRβ clonotypes in CD8+ T cell populations
Test: TCRβ CDR3 sequencing of neoantigen-specific CD8+ T cells, pre- and post-vaccine
Parameters: species or system human
Protocol: Short-term ex-vivo expanded neoantigen-specific T cells were purified to 97-99% purity by cell sorting in a Sony SY3200 BSC (Sony Biotechnology) fitted with a 100 um nozzle, at 30 psi, using 561 nm (585/40) and 642 nm (665/30) lasers and cell pellets were prepared. DNA isolation and TCRβ sequencing was performed by Adaptive Biotechnologies and The Genome Institute at Washington University. Sequencing was performed at either survey (for neoantigen-specific TCRβ reference libraries) or deep (for pre- and post-vaccine CD8+ T cell populations) level (Robins, H., et al., J. Immunol. Methods, 375, 14-19, 2012; Carlson, C. S., et al., Nat. Commun., 4, 2680, 2013). TCRβ V-, D-, J-genes of each CDR3 regions were defined using IMGT (ImMunoGeneTics)/Junctional algorithms and data uploaded into the ImmunoSeq Analyzer (Adaptive Biotechnologies) for analysis. Complete amino acid identity between the reference library and pre- and post-vaccine CD8 samples was required for assigning a TCRβ match. In the reference library, TCRβ clonotypes with frequencies above 0.1% (>100-fold sequencing depth) were set as a threshold for identification of neoantigen-specific TCRβ CDR3 sequences within pre- and post-vaccine CD8+ T cell populations.
Reference T cell receptor-β (TCRβ) complementarity-determining region 3 (CDR3) sequence libraries (shown schematically in FIG. 42, Tables 7-11) were generated from short-term expanded sorted neoantigen-specific T cells (97-99% dextramer-positive), in Tables 7-11, TCRBV, TCRBD and TCRBJ are shown according to consensus nomenclature and CDR3 sequence for each clonotype indicated. Read counts indicates the number of times a given CDR3 sequence was found in the short term ex-vivo expanded neoantigen population. TCRβ clonotypes with frequencies above 0.1% (>100-fold sequencing depth), in reference library, were set as a threshold for identification of neoantigenspecific TCRβ CDR3 sequences within CD8+ T cell populations isolated from PBMC obtained pre- and post-vaccination. […] Frequencies are shown as percent of total reads. […]

## IILVAVPHV
CD8+ T cells from PBMC after vaccination
  TCRβ clonotypes, post-vaccine: 12 clonotypes
CD8+ T cells from PBMC before vaccination
  TCRβ clonotypes, pre-vaccine: 2 clonotypes
post-vaccine clonotypes
  TCRβ families represented: 8 TCRβ families
